Laboratory results taken from US7666817B2, “Cellular libraries of peptide sequences (CLiPS) and methods of using the same” (The Regents of the University of California, priority 2005, dated 2010).

target: T1, enteropeptidase (catalytic subunit light chain) (Bos taurus, UniProt P98072); assay: CLiPS whole-cell assay, enteropeptidase cleavage of cell-surface displayed substrates (FACS); type: biochemical; settings: E. coli displaying reporter-substrate, flow cytometry
T1 construct: the catalytic subunit light chain of enteropeptidase (EP) (New England Biolabs); purchased New England Biolabs
T1 sequence (P98072 801-1035 limits assumed): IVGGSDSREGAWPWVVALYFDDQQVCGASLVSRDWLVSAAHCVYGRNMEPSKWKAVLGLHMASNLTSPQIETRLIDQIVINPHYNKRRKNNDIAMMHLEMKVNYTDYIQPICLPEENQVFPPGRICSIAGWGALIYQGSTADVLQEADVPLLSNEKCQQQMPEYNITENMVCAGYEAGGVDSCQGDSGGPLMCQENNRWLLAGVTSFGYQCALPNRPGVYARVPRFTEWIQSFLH
Method: For screening and clone analysis, overnight cultures were subcultured by dilution into fresh medium (1:50) and grown for 2 hours. The subculture was then induced with 0.04% arabinose and incubated with shaking at room temperature. Cell aliquots were harvested washed with PBS (pH 8.0) and absorbance at 600 nm (OD600) was measured to estimated density. Cells were pelleted by centrifugation, the supernatant removed and the cells resuspended in reaction buffer ([…]). The enzyme was added, and the reaction mixture was incubated at room temperature on rotary shaker (60 rpm). To stop the reaction cells were removed and diluted 100-fold in PBS, pelleted by centrifugation, and resuspended in PBS containing SA-PE (50 nM). After incubation at room temperature (1 hr), cells were washed with PBS and analyzed or sorted using a FACSAria™ cell sorter.
For enteropeptidase cleavage assays, cultures were induced for 2 hr. The reaction buffer for enteropeptidase was 50 mM Tris-Cl pH 8.0 supplemented with 20 mM NaCl and 2 mM CaCl2. […]
(§1) Specifically, for each sample, conversion was determined by flow cytometry analyses using the relationship
[formula] where (FL−) is the fluorescence after incubating without enzyme, (FL+) is fluorescence after incubation with enzyme, and (FL0) is fluorescence of unlabeled cells. For the recombinant FRET protein reactions, conversion was calculated by dividing the ratiometric FRET signal (yellow fluorescence/cyan fluorescence) by the FRET ratio that results from complete cleavage (Felber et al., Biotechniques 36:878-85 (2004)). For synthetic peptide reactions, conversion was calculated by dividing the fluorescence increase by the fluorescence change due to complete hydrolysis. […]
Given the utility of fluorescence-activated cell sorting (FACS) as a quantitative library screening tool, peptidase activity was assayed by displaying reporter-substrates on the surface of Esherichia coli (FIG. 1, panel A). […] In this way, protease activity towards a given substrate would be detectable by monitoring whole-cell fluorescence using FACS. […]

change in mean fluorescence intensity after incubation with enteropeptidase before SAPE labeling | Substance
minimal change in fluorescence | GGQSGQ
roughly twenty-fold decrease | DDDDKGGQS [Canonical, reference compound]

same assay, conditions: cell-surface displayed substrates, time-dependent conversion fit to Michaelis-Menton model

Substance | second order rate constant (kcat/KM) relative to canonical substrate DDDDK
SSGDRMWGG [EP 4.3] | 13 fold

target: T2, enteropeptidase (Bos taurus, UniProt P98072); assay: Enteropeptidase cleavage of soluble CyPet-YPet FRET fusion protein substrates (fluorimetry); type: biochemical; settings: CyPet-YPet fusion protein substrate ~0.5 μM, 0.29 nM enteropeptidase
T2 construct: the catalytic subunit light chain of enteropeptidase (EP) (New England Biolabs); purchased New England Biolabs
T2 sequence (P98072 801-1035 limits assumed): as above
From the text: Substrates EP2.1, EP4.1, EP4.2, and EP4.3 identified for enteropeptidase by CLiPS were amplified with YPet using reverse primer 7 with forward primers 8, 9, 10, and 11, respectively (Table1). The canonical EP substrate was amplified as a fusion to YPet using primers 7 and 12 (Table 1). As a negative control, a GSGSGS (SEQ ID NO:18) linker was substituted for the six amino acid substrate sequence using primers 7 and 13 (Table 1). These products were digested with kpnI and sphI and ligated to similarly digested plasmid containing CyPET to yielded plasmids pBC21Y, pBC41Y, pBC42Y, pBC43Y pBCEPY and pBCGSY.
Overnight cultures of MC1061 transformed with the FRET substrate encoding expression vectors described above were subcultured 1:50 and grown for 2 hrs. […] Reactions were performed in 100 μL of enteropeptidase reaction buffer with ˜0.5 μM fusion protein, as determined using the extinction coefficient of YPet at 514 nm (Nguyen et al., Nat Biotechnol 23:355-60 (2005)) and Beer's law. Enteropeptidase was added to each reaction to a final concentration of 0.29 nM and fluorescence emission at 475 nm (cyan) and 527 nm (yellow) was monitored upon excitation at 433 nm using a Safire fluorimeter (Tecan).
[formula] where (FL−) is the fluorescence after incubating without enzyme, (FL+) is fluorescence after incubation with enzyme, and (FL0) is fluorescence of unlabeled cells. […]

Substance | cleavage rate relative to DDDDK
SSGDRMWGG [EP 4.3] | 17 fold

tested on: tobacco etch virus protease (TEV); assay: Dual-signal CLiPS, TEV cleavage of cell-surface displayed substrates; type: biochemical; settings: TEVopt library clones; 2 hour incubation with 2 units of TEV; Guava EasyCyte plate reading cytometer
Sequence (P04517 2038-2255 limits assumed): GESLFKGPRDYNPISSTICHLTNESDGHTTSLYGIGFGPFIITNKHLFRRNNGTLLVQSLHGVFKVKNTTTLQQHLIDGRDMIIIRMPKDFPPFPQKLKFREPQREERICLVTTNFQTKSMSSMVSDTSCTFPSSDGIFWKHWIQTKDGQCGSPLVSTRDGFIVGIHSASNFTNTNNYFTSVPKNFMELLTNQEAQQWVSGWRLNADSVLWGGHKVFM
Method: Construction of a control plasmid (pBSGXP2) expressing a fusion of the streptavidin-binding peptide (WCHPMWEVMCLR) (SEQ ID NO:34) (Rice et. al. 2006) and a GGSGGS (SEQ ID NO:01) sequence flanked by flexible linkers on the amino terminus of circularly permuted outer membrane X (CPX) and a binding peptide of SLP-76 (P2) on the carboxy-terminus was performed using primers 1, 2, and 3 with primers 4 and 5. […] Products were digested with SfiI and ligated to similarly digested pBAD33. A substrate library (pBS5XP2) of the form X5, where X is any amino acid, was constructed using PCR with a synthetic oligonucleotide incorporating NNS codons (primer 9) along with primers 1 and 8 (Table 2). The product was digested with SfiI and ligated into a similarly digested pBAD33 plasmid. Transformation of the plasmid library into electrocompetent MC1061 yielded 6×10^7 colony forming units.
A second substrate library (pBSToptP2) was created using primer 10 with primers 1 and 8. The product was digested with SfiI and ligated into a similarly digested pBAD33 plasmid. Transformation of the plasmid library into electrocompetent MC1061 yielded 5×10^7 colony forming units.
Streptavidin conjugated phycoerythrin (SAPE) was used for labeling streptavidin binding affinity ligand on the N- and C-termini of CPX (FIG. 15). […] Of the three fluorescent proteins AlajGFP-Mona gave a higher fluorescence and was used for all labeling. The resulting CPX scaffold required a 3 hr induction time due to the additional peptide that was fused to the C-terminus. For optimum labeling of cells without protease reaction, the cells were incubated for 1 hr at 22° C. with SAPE (50 nM) and AlajGFPM (250 nM). […] For the described example below 1 hr incubation was used.
(§2) For screening and clone analysis, overnight cultures were subcultured by dilution into fresh medium (1:50) and grown for 2 hrs at 37° C. The subculture was induced with 0.1% arabinose and incubated with shaking at room temperature for 3 hrs. Cell aliquots were washed with PBS (pH 8.0), and optical density at 600 nm (OD600) was measured to estimate cell concentration. Cells (10^8) were pelleted by centrifugation, the supernatant was removed, and the cells were resuspended in reaction buffer (10 μL). Following addition of the enzyme, the reaction mixture was incubated at room temperature on a rotary shaker. Cells were removed and diluted 100-fold in PBS to stop the reaction, pelleted by centrifugation, and resuspended in PBS containing SA-PE (50 nM) and AlajGFP-MONA. After incubation at room temperature (1 hr), cells were washed with PBS and analyzed or sorted using a FACSAria™ cell sorter (Becton, Dickinson and Company).
as §1
(§3) [formula] where (FL−) is the fluorescence after incubating without enzyme, (FL+) is fluorescence after incubation with enzyme, and (FL0) is fluorescence of unlabeled cells. For the recombinant FRET protein reactions, conversion was calculated by dividing the ratiometric FRET signal (yellow fluorescence/cyan fluorescence) by the FRET ratio that results from complete cleavage (Felber et al., Biotechniques 36:878-85 (2004)). For synthetic peptide reactions, conversion was calculated by dividing the fluorescence increase by the fluorescence change due to complete hydrolysis. The reported enteropeptidase KM for the physiological substrate tripsinogen is 17 μM (Light et al., J Biol Chem 259:13195-8 (1984)), but 600 μM for short DDDDK (SEQ ID NO:02) peptides (Lu et al., J Mol Biol 292:361-73 (1999)). Given KM for short peptides is much larger than the substrate concentrations that were used (<5 μM), the Michaelis-Menton model simplifies to
The reaction buffer for TEV assays was 50 mM Tris-Cl pH 8.0 supplemented with 20. mM NaCl and 2 mM CaCl2. […]

Substance | % Conversion
SLYVQG [E4] | 86.3465%
ELYWQG [C4] | 68.9173%
LLYIQG [D4] | 51.6773%
SLYWQG [D5] | 71.6599%
DVYVQG [A2] | 52.6409%
VLYTQG [E6] | 54.8951%
ALYIQG [A3] | 92.212%
ELYAQG [C5] | 58.8389%
QLYFQS [C6] | 61.7894%
FLYLQG [A1] | 91.8387%
DLYWQG [C3] | 73.3768%
WLYLQG [D1] | 68.0478%
VLYLQS [A4] | 85.4432%
EVYVQG [B6] | 61.0145%
ENLYFQS [Control, reference compound] | 66.3577%

same assay, conditions: top TEV substrates from 5X library; 1 hr with 10 units of TEV

Substance | % Conversion
DRELY [F04] | 79%
EEELY [B02] | 72%
EEAVL [H07] | 71%
LEQLI [B09] | 76%
PEVIY [C10] | 81%
GEDLL [F09] | 71%
WESLY [E11] | 77%
WEPLW [H08] | 73%

tested on: enteropeptidase; assay: not given; settings: reported values (Light et al. 1984; Lu et al. 1999); cited from earlier work
Sequence (P98072 801-1035 limits assumed): as the sequence (P98072 801-1035 limits assumed) above

Substance | Km
tripsinogen: physiological substrate of enteropeptidase | 17 µM
DDDDKGGQS [Canonical, reference compound] | 600 µM

target: T3, MMP-1 (Homo sapiens, UniProt P03956); assay: Dual-signal CLiPS, MMP-1 cleavage of cell-surface displayed substrates; type: biochemical; settings: MMP substrates from sort 4 of 5X library; cells incubated with 1.5 pM MMP-1
T3 sequence (P03956 100-469): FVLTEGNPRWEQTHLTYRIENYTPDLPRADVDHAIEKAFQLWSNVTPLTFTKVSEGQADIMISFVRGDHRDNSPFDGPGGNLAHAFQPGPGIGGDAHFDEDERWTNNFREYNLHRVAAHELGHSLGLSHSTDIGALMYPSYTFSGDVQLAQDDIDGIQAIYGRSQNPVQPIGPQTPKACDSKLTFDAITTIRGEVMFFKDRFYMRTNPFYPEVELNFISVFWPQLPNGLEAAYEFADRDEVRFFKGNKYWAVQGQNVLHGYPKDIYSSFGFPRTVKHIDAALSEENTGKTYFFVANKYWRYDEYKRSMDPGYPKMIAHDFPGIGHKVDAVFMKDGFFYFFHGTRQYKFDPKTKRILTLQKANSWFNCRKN
Method: as §2, §1, §3
The MMP-1 assays were performed by incubating cells with 1.5 pM MMP-1. Sorts for hydrolysis were performed after 16 hrs, 19 hrs, and 16 hrs for sorts 1, 3 and 5, respectively (FIGS. 9 and 10). Enrichment after 4 sorts can be seen by the fluorescence shift due to MMP-1 incubation (FIG. 10) and this population was sorted a final time for hydrolyzed substrates. These clones were sequences and assayed for conversion (Table 8). […] Many of these sequences have been reported as MMP-1 substrates. However, substrates of MMP-1 with amino acids M and L at positions P1 and P3 have not previously been reported.

% Conversion | Substance
65.9% | MPLVM
41.7% | TPLAL
76% | VPVNM
42.8% | MPVVL
36.6% | VPVVM
50.4% | PMAVT
69.9% | PMAVI
72.9% | PVAMR
49.6% | PVPMV
78.9% | PVNVV
